Results taken from ChEMBL document CHEMBL1201862, “PubChem BioAssay data set” (2004).
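These data come from cells grown in 96-well plates and exposed to compound for 48 hours at five concentrations. Abbreviation: GI50, concentration required for 50% inhibition of growth.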 Calls of active or inactive are those of the source. Cut-off read from the data, not from the text of the source: active = GI50 up to about 1.1 µM and inactive = higher.

Assays:
Assay in all cases: NCI-60 cell line screen, 48 h
SK-OV-3 = test system: SK-OV-3
CCRF-CEM = test system: CCRF-CEM
HL-60 = test system: HL-60
SF-539 = test system: SF-539
OVCAR-3 = test system: OVCAR-3
HCT-116 = test system: HCT-116
HCT-15 = test system: HCT-15
SNB-75 = test system: SNB-75
SR = test system: SR
KM12 = test system: KM12
UO-31 = test system: UO-31
Malme-3M = test system: Malme-3M
NCI-H23 = test system: NCI-H23
HT-29 = test system: HT-29
NCI/ADR-RES = test system: NCI/ADR-RES
T47D = test system: T47D
PC-3 = test system: PC-3
MDA-N = test system: MDA-N
MDA-MB-435 = test system: MDA-MB-435

Structure (SMILES)	GI50 (SK-OV-3)	GI50 (CCRF-CEM)	GI50 (HL-60)	GI50 (SF-539)	GI50 (OVCAR-3)	GI50 (HCT-116)	GI50 (HCT-15)	GI50 (SNB-75)	GI50 (SR)	GI50 (KM12)	GI50 (UO-31)	GI50 (Malme-3M)	GI50 (NCI-H23)	GI50 (HT-29)	GI50 (NCI/ADR-RES)	GI50 (T47D)	GI50 (PC-3)	GI50 (MDA-N)	GI50 (MDA-MB-435)
O=C(Nc1cccc2c1C(=O)c1c(NC(=O)c3ccccc3)ccc(Nc3cccc4c3C(=O)c3ccccc3C4=O)c1C2=O)c1ccccc1	> 100 µM (inactive)	> 100 µM (inactive)	> 100 µM (inactive)	> 100 µM (inactive)	> 100 µM (inactive)	> 100 µM (inactive)	> 100 µM	70.3 µM (inactive)	> 100 µM (inactive)	> 100 µM (inactive)	> 100 µM (inactive)	> 100 µM (inactive)	–	–	–	–	–	–	–
CSc1nnc(CCC(=O)Nc2c(C)cccc2C)o1	> 100 µM (inactive)	> 100 µM (inactive)	> 100 µM (inactive)	> 100 µM (inactive)	> 100 µM (inactive)	> 100 µM (inactive)	50.8 µM	91.6 µM (inactive)	–	> 100 µM (inactive)	> 100 µM (inactive)	> 100 µM (inactive)	> 100 µM (inactive)	> 100 µM (inactive)	–	–	–	–	–
N#C/C(=C\c1ccc(O)cc1O)C(N)=O	45.6 µM (inactive)	> 100 µM (inactive)	53.6 µM (inactive)	> 100 µM (inactive)	> 100 µM (inactive)	94.2 µM (inactive)	> 100 µM	16.7 µM (inactive)	–	> 100 µM (inactive)	33.6 µM (inactive)	90.8 µM (inactive)	58.1 µM (inactive)	29.8 µM (inactive)	–	–	–	–	–
CC1CN=C(N(C(=O)Nc2ccccc2)c2ccc(Cl)c(Cl)c2)S1 (configuration not stated)	52.7 µM (inactive)	> 10 µM (inactive)	30.3 µM (inactive)	40.5 µM (inactive)	> 10 µM (inactive)	23.1 µM (inactive)	23.2 µM	> 100 µM (inactive)	24.4 µM (inactive)	30.5 µM (inactive)	24.8 µM (inactive)	38 µM (inactive)	32.8 µM (inactive)	16.1 µM (inactive)	20.7 µM (inactive)	14.4 µM (inactive)	26.8 µM (inactive)	> 10 µM (inactive)	–
COC(=O)/C=C/C1C(C(=O)OC)C2(C(=O)OC)CCC1(C(=O)OC)N2 (configuration not stated)	> 100 µM (inactive)	> 100 µM (inactive)	> 100 µM (inactive)	> 100 µM (inactive)	> 100 µM (inactive)	> 100 µM (inactive)	> 100 µM	> 100 µM (inactive)	> 100 µM (inactive)	> 100 µM (inactive)	> 100 µM (inactive)	> 100 µM (inactive)	> 100 µM (inactive)	> 100 µM (inactive)	–	–	–	–	–
CC(c1cccc2ccccc12)/[N+]([O-])=C/c1ccccc1 (configuration not stated)	> 100 µM (inactive)	> 100 µM (inactive)	99.5 µM (inactive)	> 100 µM (inactive)	> 100 µM (inactive)	> 100 µM (inactive)	–	75 µM (inactive)	–	> 100 µM (inactive)	39.6 µM (inactive)	> 100 µM (inactive)	> 100 µM (inactive)	> 100 µM (inactive)	–	–	–	–	–
COC(=O)[C@@H]1Cc2c([nH]c3ccccc23)[C@H](c2ccccc2)N1	34.4 µM (inactive)	37.3 µM (inactive)	29.9 µM (inactive)	26.4 µM (inactive)	31.6 µM (inactive)	29.4 µM (inactive)	19.4 µM	19.5 µM (inactive)	29.2 µM (inactive)	36.6 µM (inactive)	29.6 µM (inactive)	94 µM (inactive)	54.1 µM (inactive)	49.3 µM (inactive)	–	–	–	–	–
COc1cc(/C=C2\CCC(C)c3c2nc(N)c(C#N)c3-c2cc(OC)c(OC)c(OC)c2)cc(OC)c1OC (configuration not stated)	> 100 µM (inactive)	23.7 µM (inactive)	49.1 µM (inactive)	–	–	> 100 µM (inactive)	27.1 µM	0.165 µM (active)	25.8 µM (inactive)	51.6 µM (inactive)	–	–	–	33.3 µM (inactive)	–	–	55.1 µM (inactive)	> 100 µM (inactive)	> 100 µM (inactive)
CC1=C(C(=O)Nc2ccccc2)C(c2ccc(Cl)c(Cl)c2)C(C(=O)Nc2ccccc2)=C(C)N1	15.1 µM (inactive)	5.06 µM (inactive)	–	17.3 µM (inactive)	11.7 µM (inactive)	10.4 µM (inactive)	10.9 µM	14.2 µM (inactive)	–	13 µM (inactive)	13.2 µM (inactive)	12.7 µM (inactive)	12.5 µM (inactive)	12.2 µM (inactive)	–	–	–	–	–
CCCCCCCCNC(=O)SCCCC	> 100 µM (inactive)	23.4 µM (inactive)	18.8 µM (inactive)	38.6 µM (inactive)	49.5 µM (inactive)	–	27.9 µM	26.1 µM (inactive)	–	55 µM (inactive)	26.5 µM (inactive)	23.1 µM (inactive)	38.5 µM (inactive)	20.8 µM (inactive)	–	–	–	–	–
CC(C)C(=O)/C=C/c1ccccc1	> 100 µM (inactive)	23.9 µM (inactive)	42.3 µM (inactive)	> 100 µM (inactive)	31 µM (inactive)	67.3 µM (inactive)	–	> 100 µM (inactive)	31.2 µM (inactive)	69.7 µM (inactive)	> 100 µM (inactive)	–	63.8 µM (inactive)	53.5 µM (inactive)	–	–	–	–	–
CCOC(=O)/C(=C/c1ccc(C#N)cc1)N(CC)CC	> 100 µM (inactive)	> 100 µM (inactive)	> 100 µM (inactive)	> 100 µM (inactive)	–	> 100 µM (inactive)	> 100 µM	> 100 µM (inactive)	> 100 µM (inactive)	> 100 µM (inactive)	> 100 µM (inactive)	> 100 µM (inactive)	> 100 µM (inactive)	> 100 µM (inactive)	–	–	–	–	–
CCCc1ccc(/N=C\c2cc(OC)c(OC)c(OC)c2)cc1	> 100 µM (inactive)	26.6 µM (inactive)	21.5 µM (inactive)	> 100 µM (inactive)	> 100 µM (inactive)	> 63.4 µM (inactive)	> 39.9 µM	> 100 µM (inactive)	55.5 µM (inactive)	> 100 µM (inactive)	> 100 µM (inactive)	> 100 µM (inactive)	> 100 µM (inactive)	> 87.7 µM (inactive)	–	–	–	–	–
O=C(CC(C(=O)c1ccsc1)c1ccsc1)c1ccsc1 (configuration not stated)	59.4 µM (inactive)	43.1 µM (inactive)	35.2 µM (inactive)	> 100 µM (inactive)	–	43.4 µM (inactive)	61.4 µM	56.5 µM (inactive)	36.5 µM (inactive)	42.7 µM (inactive)	39.4 µM (inactive)	> 100 µM (inactive)	46.1 µM (inactive)	77.6 µM (inactive)	32.1 µM (inactive)	25.5 µM (inactive)	44 µM (inactive)	–	44.6 µM (inactive)
CCC(C(=O)c1ccccc1)C(CCCC(=O)Nc1c(C)cccc1C)N=O (configuration not stated)	> 100 µM (inactive)	> 100 µM (inactive)	> 100 µM (inactive)	> 100 µM (inactive)	> 100 µM (inactive)	> 100 µM (inactive)	> 100 µM	> 100 µM (inactive)	> 100 µM (inactive)	> 100 µM (inactive)	> 100 µM (inactive)	> 100 µM (inactive)	> 100 µM (inactive)	> 100 µM (inactive)	–	–	–	–	–
O=C(c1ccc(O)cc1)C1c2c3c(cc(O)c2C(c2ccc(O)cc2)C1c1cc(O)cc(O)c1)OC(c1ccc(O)cc1)C3c1cc2c(cc1O)OC(c1ccc(O)cc1)C2c1cc(O)cc(O)c1 (configuration not stated)	–	> 12.5 µM (inactive)	> 12.5 µM (inactive)	> 12.5 µM (inactive)	> 12.5 µM (inactive)	> 12.5 µM (inactive)	> 12.5 µM	> 12.5 µM (inactive)	> 12.5 µM (inactive)	> 12.5 µM (inactive)	> 12.5 µM (inactive)	> 12.5 µM (inactive)	> 12.5 µM (inactive)	–	–	–	–	–	–
CN1COc2c(n(C)c(=O)[nH]c2=O)C1	> 100 µM (inactive)	> 61.7 µM (inactive)	24.4 µM (inactive)	> 100 µM (inactive)	> 100 µM (inactive)	57.5 µM (inactive)	98.2 µM	> 100 µM (inactive)	27.2 µM (inactive)	> 100 µM (inactive)	> 100 µM (inactive)	> 100 µM (inactive)	> 100 µM (inactive)	> 100 µM (inactive)	–	–	–	–	–
COc1ccc2nc(NC(=O)C(=O)C(C#N)c3ccc(Cl)c(Cl)c3)sc2c1 (configuration not stated)	> 100 µM (inactive)	> 100 µM (inactive)	> 100 µM (inactive)	63.4 µM (inactive)	> 100 µM (inactive)	62.4 µM (inactive)	> 100 µM	45.3 µM (inactive)	–	> 100 µM (inactive)	> 100 µM (inactive)	> 100 µM (inactive)	75.9 µM (inactive)	> 100 µM (inactive)	–	–	–	–	–
O=C(/N=N/C(=O)OCc1ccccc1)OCc1ccccc1	> 100 µM (inactive)	84.1 µM (inactive)	43.7 µM (inactive)	> 100 µM (inactive)	58.2 µM (inactive)	> 100 µM (inactive)	94.2 µM	42.1 µM (inactive)	–	88.3 µM (inactive)	31.6 µM (inactive)	> 100 µM (inactive)	99.8 µM (inactive)	> 100 µM (inactive)	–	–	–	–	–
c1ccc2c(Cc3nnc4sc(SSc5nn6c(Cc7c[nH]c8ccccc78)nnc6s5)nn34)c[nH]c2c1	39.9 µM (inactive)	32.6 µM (inactive)	24.2 µM (inactive)	23.1 µM (inactive)	11.8 µM (inactive)	16 µM (inactive)	21.3 µM	48.2 µM (inactive)	18.1 µM (inactive)	22.9 µM (inactive)	14.5 µM (inactive)	31.3 µM (inactive)	19.1 µM (inactive)	22.5 µM (inactive)	20.3 µM (inactive)	23.2 µM (inactive)	19.3 µM (inactive)	–	19 µM (inactive)
